Columns and labels:
[1] = molecular target: T1, HexA (Homo sapiens, UniProt P06865); test: Analytical range of duplex assay, HexA activity; format: biochemical; details: dried blood spots
T1 construct: using endogenous enzymes from healthy adult dried blood spots; from tissue; host or cells: dried blood spots from healthy adults/individuals (3.2 mm punches)
T1 sequence (P06865 89-529): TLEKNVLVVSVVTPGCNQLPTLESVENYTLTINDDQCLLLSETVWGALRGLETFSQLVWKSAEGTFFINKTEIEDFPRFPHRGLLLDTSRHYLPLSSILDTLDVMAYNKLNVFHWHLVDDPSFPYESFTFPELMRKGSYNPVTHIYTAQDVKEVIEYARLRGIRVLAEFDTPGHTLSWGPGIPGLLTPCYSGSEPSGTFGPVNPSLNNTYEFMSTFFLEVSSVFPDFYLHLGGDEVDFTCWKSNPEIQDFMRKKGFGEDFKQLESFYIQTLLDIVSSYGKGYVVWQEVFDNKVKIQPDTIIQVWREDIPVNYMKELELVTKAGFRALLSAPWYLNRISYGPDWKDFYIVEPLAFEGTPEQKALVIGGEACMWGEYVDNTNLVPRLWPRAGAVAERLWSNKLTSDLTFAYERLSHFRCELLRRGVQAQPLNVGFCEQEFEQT
T1 sequence (P07686 122-556 partner): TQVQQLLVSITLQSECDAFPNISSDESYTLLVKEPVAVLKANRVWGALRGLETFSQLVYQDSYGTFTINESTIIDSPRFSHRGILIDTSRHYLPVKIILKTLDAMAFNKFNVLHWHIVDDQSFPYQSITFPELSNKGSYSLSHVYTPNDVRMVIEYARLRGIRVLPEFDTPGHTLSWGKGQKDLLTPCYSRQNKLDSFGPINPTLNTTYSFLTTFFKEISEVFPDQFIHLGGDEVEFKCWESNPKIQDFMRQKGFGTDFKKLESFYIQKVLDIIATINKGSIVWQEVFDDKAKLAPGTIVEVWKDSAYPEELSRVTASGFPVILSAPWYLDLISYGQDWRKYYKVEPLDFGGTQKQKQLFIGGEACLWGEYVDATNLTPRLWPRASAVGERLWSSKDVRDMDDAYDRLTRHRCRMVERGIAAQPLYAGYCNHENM
Method: (§1) 3.2 mm punches were taken from dried blood samples. The punches were added into a well of a multiwell plate and in particular, a 1.0 mL deep-well 96-well plate. Following, 30 μL of the duplex assay cocktail described above was added to each well. The plate was sealed with a silicone sealing mat and shaken at 250 rpm for 4 hours at 37° C. in an orbital shaker incubator. After incubation, the enzymatic reaction was quenched by adding 100 μL of methanol: ethyl acetate (1:1) and mixed by pipetting up and down ˜10 times. Analytes were extracted by adding sodium chloride solution (0.5 M, 200 μL) and ethyl acetate (400 μL) to each well and mixed by pipetting up and down ˜10 times. The plate was centrifuged at 3000×g for 5 min at ambient temperature, then 200 μL of the upper ethyl acetate layer was transferred to a 96-well microplate. […]
(§2) Analytes were detected via a WATERS™ Xevo TQ triple-quadrupole mass spectrometer. […] The following MRM traces were monitored for quantitation: HexA enzymatic reaction product (456.5>356.1), HexA/B enzymatic reaction product (461.5>361.2), and internal standard (465.5>357.1). […]
The analytical range, as calculated by dividing the enzymatic activity in healthy individual samples over the enzymatic activity in a blank, was determined to be 82 for the HexA substrate and 3,400 for the HexA/B substrate.

[2] = Substrate stability over incubation in sodium formate buffer; format: physicochemical; details: 24 hour incubation at 37° C. in sodium formate buffer; read-out: recovery of the substrates (stability)
[3] = system: HexA/B; test: Enzyme kinetics of HexA/B with the HexA/B substrate, endogenous enzymes from healthy adult dried blood spots, LC-MS/MS detection; format: biochemical; details: read-out: Michaelis-Menten constant (Km)
Method: as §1, with “times.” for “times. The plate was centrifuged at 3000×g for 5 min at ambient temperature, then 200 μL of the upper ethyl acetate layer was transferred to a 96-well microplate.”
as §2
Enzyme kinetics of HexA and HexA/B were measured in relationship to the HexA substrate and HexA/B substrate, respectively, using endogenous enzymes from healthy adult dried blood spots. […]
The reaction rate for each substrate at different substrate concentrations was measured and the relationship found to be hyperbolic.

[4] = molecular target: T1, HexA; test: Competitive inhibition: HexA activity with the HexA substrate in presence and absence of the HexA/B substrate, dried blood spots from healthy individuals; format: biochemical; details: HexA substrate in presence vs absence of HexA/B substrate
Method: The HexA/B substrate binds to both HexA and HexB, whereas the HexA substrate binds to only the HexA; thus, the HexA/B substrate may theoretically block the action of HexA on the HexA substrate by competitive binding (i.e. competitive inhibition). An experiment was done to test this theory where HexA enzymatic activity was measured in dried blood spots from healthy individuals using the HexA substrate in the presence and absence of the HexA/B substrate.

Row | analytical range (enzymatic activity in healthy individual samples over enzymatic activity in a blank) [1] | recovery at 24 h [2] [%] | Km [3] [mM] | competitive inhibition of HexA enzymatic activity on the HexA substrate [4] | Compound
1 | 82 | > 100 |  |  | CC(=O)NC1C(Oc2ccc(NC(=O)CCN(CCCCNC(=O)c3ccccc3)C(=O)OC(C)(C)C)cc2)OC(COS(=O)(=O)O)C(O)C1O (centres unmarked) [HexA substrate]
2 |  | > 100 | 3.06 | no competitive inhibition | [2H]c1c([2H])c([2H])c(C(=O)NCCCCN(CCC(=O)Nc2ccc(OC3OC(CO)C(O)C(O)C3NC(C)=O)cc2)C(=O)OC(C)(C)C)c([2H])c1[2H] (centres unmarked) [HexA/B substrate]
